For 24 molecules, IC50 results are on record in patent US20170291890A1 (Epizyme, Inc., priority 2014, published 2017).

Assay [1] deals with T1, KDM4C (Homo sapiens, UniProt Q9H3R0).
T1 construct: N-terminal GST-tagged KDM4C^2-372 was purchased from BPS Biosciences; GST (N); purchased BPS Biosciences
T1 sequence (Q9H3R0 2-372): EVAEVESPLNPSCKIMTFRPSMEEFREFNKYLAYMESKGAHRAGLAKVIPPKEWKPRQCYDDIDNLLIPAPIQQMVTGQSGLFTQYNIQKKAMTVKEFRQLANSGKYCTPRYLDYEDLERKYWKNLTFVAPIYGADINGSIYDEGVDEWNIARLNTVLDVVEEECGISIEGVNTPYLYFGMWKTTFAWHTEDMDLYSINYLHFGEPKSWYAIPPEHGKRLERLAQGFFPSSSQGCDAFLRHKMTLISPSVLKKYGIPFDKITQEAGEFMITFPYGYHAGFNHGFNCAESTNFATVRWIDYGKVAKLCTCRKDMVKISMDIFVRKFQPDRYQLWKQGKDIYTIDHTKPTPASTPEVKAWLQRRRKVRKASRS
As to the kind of experiment: KDM4C Assay (SAMDI mass spectrometry demethylase assay). The settings on record: N-terminal GST-tagged KDM4C 2-372; class symbols; read-out: 4C IC50. Type of assay: biochemical. The gist of the method:
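GST-tagged KDM4C 2-372 (5 nM) preincubated 30 min with compound, then H3K9me3 biotinylated peptide (500 nM) and 2-oxoglutarate (15 μM) added in HEPES pH 8.0 with ascorbate, Fe(II), TCEP; 150 min at 25 °C, formic-acid quench. Conversion by SAMDI mass spectrometry from substrate/product peak AUC; IC50 from dose-response.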

Assay [2] has as its target T2, KDM4A (Homo sapiens, UniProt O75164).
T2 construct: N-terminal His-tagged KDM4A^1-350 was purchased from BPS Biosciences; His (N); purchased BPS Biosciences
T2 sequence (O75164 1-350): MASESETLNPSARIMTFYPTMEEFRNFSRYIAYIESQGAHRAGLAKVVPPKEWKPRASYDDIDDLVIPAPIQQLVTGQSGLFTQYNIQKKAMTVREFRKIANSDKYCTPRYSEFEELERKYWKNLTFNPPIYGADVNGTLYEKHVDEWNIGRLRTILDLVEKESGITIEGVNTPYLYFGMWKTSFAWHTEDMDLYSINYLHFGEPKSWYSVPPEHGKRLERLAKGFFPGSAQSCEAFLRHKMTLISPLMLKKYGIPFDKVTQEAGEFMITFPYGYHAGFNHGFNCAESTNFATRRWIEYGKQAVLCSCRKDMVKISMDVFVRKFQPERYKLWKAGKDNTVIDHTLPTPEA
As to the kind of experiment: KDM4A Assay (SAMDI mass spectrometry demethylase assay). In kind it is biochemical. Particulars: N-terminal His-tagged KDM4A 1-350; class symbols; read-out: 4A IC50. The protocol: N-terminal His-tagged KDM4A^1-350 was purchased from BPS Biosciences. Peptides were synthesized by BioPeptide and all other reagents were purchased from Sigma-Aldrich at the highest level of purity possible. Assays were performed in a 50 μL volume in 384-well V-bottom polypropylene microplates (Greiner) at 25° C. Optimized 1× assay buffer was 50 mM HEPES (pH=8.0), 100 μM sodium ascorbate, 20 mM NaCl, 10 μM ammonium iron sulfate, 1 mM tris(2-carboxyethyl)phosphine (TCEP), 0.002% Tween-20, and 0.005% BSG. For compound screening, 35 μL of KDM4A^1-350 (final concentration, f.c.=5 nM) was added using a Multidrop Combi and preincubated with 1 μL of test compound (f.c.=10 μM) for 30 minutes and subsequently 15 μL of peptide with the following sequence NH2-ARTKQTAR(Kme2)STGGKAPRKQLA(K-Ahx-Biotin)-amide (f.c.=600 nM) and 2-oxoglutarate (f.c.=5 μM) was added by Multidrop Combi to begin the reaction. Reactions proceeded for 120 minutes and were stopped by the addition of 5 μL of formic acid (f.c.=0.5%) using a Multidrop Combi and then analyzed by SAMDI Tech Inc.
SAMDI Tech analyzed all reactions using self-assembled monoloayer desorption/ionization technology as previously described (Gerard-Levin Z A, Scholle M D, Eisenberg A H, et al.: High-throughput screening of small molecule libraries using SAMDI mass spectrometry. ACS Comb Sci 2011; 13:347-350). Briefly, a 2 μL sample of the stopped demethylase reactions were transferred to a SAMDI array coated with 384 biotin-neutravidin spots using a 384-channel pipet station. The SAMDI arrays were incubated for 1 h in a humidified chamber, followed by washing of the surface with deionized ultra-filtered water (DIUF) and drying under nitrogen. A matrix of 30 mg/ml 2′,4′,6′-Trihydroxyacetophenone monohydrate (THAP) in acetone was applied using a TPP Mosquito 1.2 μL tip by dispensing 50 nL on each of the 384 spots on the array. SAMDI-MS was run using acquisition method ReflectorPositiveUTX. The % conversion of substrate to product was calculated using the AUC of the substrate and product peptide peaks.
An IC50 value was determined by contacting various concentrations of a test compound with one of the KDM4A, KDM4C or KDMSC enzyme constructs and plotting a dose-response curve which associates the amount of inhibition of the enzyme relative to the concentration of the test compound. From the curve, the IC50 value (which represents the concentration of the test compound necessary to inhibit maximal enzymatic activity by 50%) was determined. Additionally, the slope of the linear range of the plotted curve, which indicates the speed with which the curve rises between the minimum and maximum, was calculated.

Take `NCCn1nc(-c2ccccc2)cc1Nc1cnccc1C(=O)O` [Compound 26]: the IC50 in assay [1] and in assay [2] was 1 to 10 µM each time.
As for `COCCn1nc(-c2ccccc2)cc1Nc1cnccc1C(=O)O` [Compound 27, 3-((1-(2-Methoxyethyl)-3-phenyl-1H-pyrazol-5-yl)amino) isonicotinic acid], the half-maximal inhibitory concentration (IC50) in assay [1] and in assay [2] was 0.1 to 1 µM in each case.
As to `Cc1c(Nc2cnccc2C(=O)O)cnn1Cc1ccccc1` [Compound 33, 3-((1-benzyl-5-methyl-1H-pyrazol-4-yl)amino)isonicotinic acid], the half-maximal inhibitory concentration (IC50) in assay [1] and in assay [2] was 0.001 to 0.1 µM throughout.
Take `CN1CCN(CCn2cc(-c3ccccc3)c(Nc3cnccc3C(=O)O)n2)CC1` [Compound 34, 3-((1-(2-(4-Methylpiperazin-1-yl)ethyl)-4-phenyl-1H-pyrazol-3-yl)amino)isonicotinic acid]: the half-maximal inhibitory concentration (IC50) in assay [1] lay within 10 to 100 µM; in assay [2], 1 to 10 µM.
Taken in the same sequence, the figures for `CN1CCN(CCn2ncc(-c3ccccc3)c2Nc2cnccc2C(=O)O)CC1` [Compound 35, 3-((1-(2-(4-methylpiperazin-1-yl)ethyl)-4-phenyl-1H-pyrazol-5-yl)amino)isonicotinic acid] were 0.1 to 1 µM and 0.1 to 1 µM.
Turning to `CCn1nc(-c2ccccc2)cc1Nc1cnccc1C(=O)O` [Compound 36, 3-((1-Ethyl-3-phenyl-1H-pyrazol-5-yl)amino)isonicotinic acid], the IC50 in assay [1] and in assay [2] was 0.1 to 1 µM each time.
`N[C@H]1CC[C@@H](n2nc(-c3ccccc3)cc2Nc2cnccc2C(=O)O)CC1` [Compound 37, 3-((1-((cis)-4-aminocyclohexyl)-3-phenyl-1H-pyrazol-5-yl)amino)isonicotinic acid]: the IC50 in assay [1] and in assay [2] was 0.1 to 1 µM throughout.
`N[C@H]1CC[C@H](n2nc(-c3ccccc3)cc2Nc2cnccc2C(=O)O)CC1` [Compound 38, 3-((1-((trans)-4-aminocyclohexyl)-3-phenyl-1H-pyrazol-5-yl)amino)isonicotinic acid]: the half-maximal inhibitory concentration (IC50) in assay [1] and in assay [2] was 10 to 100 µM throughout.
With `O=C(O)c1ccncc1Nc1cc(-c2ccccc2)nn1[C@H]1CC[C@H](O)CC1` [Compound 39, 3-((1-((trans)-4-hydroxycyclohexyl)-3-phenyl-1H-pyrazol-5-yl)amino)isonicotinic acid], the IC50 in assay [1] was 0.1 to 1 µM; in assay [2], 1 to 10 µM.
As for `O=C(O)c1ccncc1Nc1cc(-c2ccccc2)nn1[C@H]1CC[C@@H](O)CC1` [Compound 40, 3-((1-((cis)-4-Hydroxycyclohexyl)-3-phenyl-1H-pyrazol-5-yl)amino)isonicotinic acid], the concentration for half-maximal inhibition (IC50) in assay [1] and in assay [2] was 1 to 10 µM throughout.
Consider `O=C(O)c1ccncc1Nc1cn(-c2ccccc2)nc1-c1ccccc1` [Compound 41, 3-((1,3-Diphenyl-1H-pyrazol-4-yl)amino)isonicotinic acid], for which the 50% inhibitory concentration (IC50) in assay [1] and in assay [2] was 0.1 to 1 µM each time.
In the case of `O=C(O)c1ccncc1Nc1nn(-c2ccccc2)cc1-c1ccccc1` [Compound 42, 3-((1,4-diphenyl-1H-pyrazol-3-yl)amino)isonicotinic acid], the half-maximal inhibitory concentration (IC50) in assay [1] and in assay [2] was 0.1 to 1 µM each time.
As to `O=C(O)c1ccncc1Nc1c(-c2ccccc2)cnn1-c1ccccc1` [Compound 43, 3-((1,4-Diphenyl-1H-pyrazol-5-yl)amino)isonicotinic acid], the concentration for half-maximal inhibition (IC50) in assay [1] and in assay [2] was 10 to 100 µM each time.
On to `O=C(O)c1ccncc1Nc1nn(CCN2CCC(F)(F)CC2)cc1-c1ccc(F)cc1` [Compound 45, 3-((1-(2-(4,4-difluoropiperidin-1-yl)ethyl)-4-(4-fluorophenyl)-1H-pyrazol-3-yl)amino)isonicotinic acid], for which the IC50 in assay [1] and in assay [2] was 0.1 to 1 µM in each case.
With `O=C(O)c1ccncc1Nc1c(-c2ccc(F)cc2)cnn1CCN1CCC(F)(F)CC1` [Compound 46, 3-((1-(2-(4,4-difluoropiperidin-1-yl)ethyl)-4-(4-fluorophenyl)-1H-pyrazol-5-yl)amino) isonicotinic acid], the figures for the 50% inhibitory concentration (IC50) in assay [1] and in assay [2] were 10 to 100 µM and 1 to 10 µM, respectively.
Take `CN(C)CCCn1cc(-c2ccccc2)c(Nc2cnccc2C(=O)O)n1` [Compound 51, 3-((1-(3-(dimethylamino)propyl)-4-phenyl-1H-pyrazol-3-yl)amino) isonicotinic acid]: the IC50 in assay [1] fell in the range of 0.1 to 1 µM; in assay [2] it was 0.001 to 0.1 µM.
Taken in the same sequence, the figures for `CN(C)CCCn1ncc(-c2ccccc2)c1Nc1cnccc1C(=O)O` [Compound 52, 3-((1-(3-(dimethylamino)propyl)-4-phenyl-1H-pyrazol-5-yl)amino) isonicotinic acid] were 10 to 100 µM and 1 to 10 µM.
For `Cc1c(-c2ccccc2)nn(C)c1Nc1cnccc1C(=O)O` [Compound 53, 3-((1,4-dimethyl-3-phenyl-1H-pyrazol-5-yl)amino)isonicotinic acid], in that order: 0.1 to 1 µM and 0.1 to 1 µM.
Regarding `Cc1n[nH]c(-c2ccccc2)c1Nc1cnccc1C(=O)O` [Compound 55, 3-((5-methyl-3-phenyl-1H-pyrazol-4-yl)amino)isonicotinic acid], the IC50 in assay [1] and in assay [2] was 1 to 10 µM throughout.
For the molecule `O=C(O)c1ccncc1Nc1cc(-c2ccccc2)nn1-c1ccncc1` [Compound 56, 3-((3-phenyl-1-(pyridin-4-yl)-1H-pyrazol-5-yl)amino) isonicotinic acid], the IC50 in assay [1] and in assay [2] was 0.1 to 1 µM in each case.
With `O=C(O)c1ccncc1Nc1nn(CCN2CCC(F)(F)CC2)cc1C1CCCCC1` [Compound 57, 3-((4-cyclohexyl-1-(2-(4,4-difluoropiperidin-1-yl)ethyl)-1H-pyrazol-3-yl)amino)isonicotinic acid], the IC50 in assay [1] and in assay [2] was 0.1 to 1 µM in each case.
Turning to `CNC(=O)c1ccc(-n2ncc(Nc3cnccc3C(=O)O)c2C)cc1` [Compound 58, 3-((5-methyl-1-(4-(methylcarbamoyl)phenyl)-1H-pyrazol-4-yl)amino) isonicotinic acid], the IC50 in assay [1] and in assay [2] was 0.001 to 0.1 µM each time.
Turning to `CNC(=O)c1cccc(-n2ncc(Nc3cnccc3C(=O)O)c2C)c1` [Compound 59, 3-((5-methyl-1-(3-(methylcarbamoyl)phenyl)-1H-pyrazol-4-yl)amino) isonicotinic acid], the half-maximal inhibitory concentration (IC50) in assay [1] and in assay [2] was 0.001 to 0.1 µM throughout.
`Cc1cc(Nc2cnccc2C(=O)O)nn1-c1ccccc1` [Compound 60, 3-((5-methyl-1-phenyl-1H-pyrazol-3-yl)amino)isonicotinic acid]: the half-maximal inhibitory concentration (IC50) in assay [1] and in assay [2] was 0.1 to 1 µM each time.

By IC50 is commonly meant the concentration that inhibits the measured activity by half.
